Type in all cases: in vivo, mouse
The test system of one experiment is db/db mice. Description: Rectal temperature, oxygen consumption and motor activity, db/db mice. As to the method: 5 week-old male C57BL/KsJ-db/db mice (db/db mice: body weight 19 to 25 g, Japan SLC, Inc.) were purchased and individually fed in tip cages. For the db/db mice, normal pellet diet (CE-2) was administered under free water intake and free food intake. A body weight and a food intake amount over 24 hours were measured everyday from the start of feeding. On day 3 after the start of feeding, blood was taken from an orbit after 6 hour-fasting and a blood glucose level and a blood insulin concentration were measured. The db/db mice were divided into three groups (10 mice per each group) so that a body weight, a 24 hour-food intake amount, a blood glucose level, and a blood insulin concentration were equal, and defined to be a control group, an R-baclofen treated group, and an S-baclofen treated group. […] After division into the groups, from day 5 after the start of feeding, R-baclofen and S-baclofen were dissolved in drinking water and 5 week-continuous oral administration was started. Both of R-baclofen and S-baclofen were dissolved in drinking water at a concentration of 1.1 mg/dl used in the low concentration treated group in the experiment of baclofen racemic mixture administration. A food intake amount and a body weight were measured over time, and a rectal temperature was measured 5 weeks after the start of the administration. Blood was taken after the 5-week administration of baclofen, and the db/db mice were sacrificed by cervical luxation.
R-baclofen and S-baclofen were administered to db/db/mice and (±)-baclofen was administered to db/^+m mice respectively for 5 weeks, and rectal temperatures were then continuously measured for 3 days at 20 o'clock immediately before the dark period when feed intake was started in the mice. The method of measuring rectal temperatures was as follows. That is, the rectal temperatures were measured by using a digital thermistor (manufactured by NATSUME SEISAKUSHO CO., LTD.).
(±)-baclofen was orally administered to db/db mice and DIO mice for 5 weeks and rectal temperatures were measured 5 weeks after the start of the administration, and oxygen consumptions and motor activity were measured by using a small animal metabolism measuring system (model MK-5000: Muromachi Kikai Co., Ltd.).

The test system of experiment [1] is db/^+m mice. Put plainly: Food intake amount and body weight, 5 week-continuous oral administration, non-obese db/+m mice. The note with it: (±)-baclofen 2.7 mg/dl in drinking water, 5 weeks. As to the method: (§1) 5 week-old male C57BL/KsJ-db/^+m mice (db/^+m mice: body weight 19 to 23 g, Japan SLC, Inc.) were purchased and individually fed in tip cages. To the db/^+m mice, normal pellet diet (CE-2) was administered under free water intake and free food intake. A body weight and a food intake amount over 24 hours were measured every day from the start of feeding. On day 3 after the start of feeding, blood was taken from an orbit after 6 hour-fasting and a blood glucose level and a blood insulin concentration were measured. The db/^+m mice were divided into two groups (10 mice per each group) so that a body weight, a 24 hour-food intake amount, a blood glucose level, and a blood insulin concentration were equal, and defined to be a control group and a baclofen treated group. After division into the groups, from day 5 after the start of feeding, (±)-baclofen was dissolved in drinking water and 5 week-continuous oral administration was started in the baclofen treated group. (±)-baclofen was dissolved in drinking water at a concentration of 2.7 mg/dl used in the high concentration treated group in the experiment of db/db mice. A food intake amount and a body weight of the db/^+m mice were measured over time, and a rectal temperature was measured 5 weeks after the start of the administration. Blood was taken after the 5-week administration of (±)-baclofen, and the db/^+m mice were sacrificed by cervical luxation.
5 week-old male C57BL/KsJ-db/db mice (db/db mice: body weight 19 to 25 g, Japan SLC, Inc.) were purchased and individually fed in tip cages. Normal pellet diet (CE-2) was administered to the db/db mice under free water intake and free food intake. A body weight and a food intake amount over 24 hours were measured every day from the start of feeding. On day 3 after the start of feeding, blood was taken from an orbit after 6 hour-fasting and a blood glucose level and a blood insulin concentration were measured. The db/db mice were divided into three groups (10 mice per each group) so that a body weight, a 24 hour-food intake amount, a blood glucose level, and a blood insulin concentration were equal and defined to be a control group, an SKF97541 treated group and a 3-APPA treated group. SKF97541 and 3-APPA were dissolved in drinking water at respective concentrations of 10×10^−6 M and 100×10^−6 M, and continuously orally administered for 5 weeks, and a food intake amount and a body weight were measured over time during the administration period. SKF97541 (10×10^−6 M) or 3-APPA (100×10^−6M) was dissolved in drinking water and orally administered also to db/^+m mice, and a food intake amount and a body weight were measured over time in the same manner.

The subject of experiment [2] is db/^+m mice. Put plainly: Rectal temperature, db/+m mice. The note with it: (±)-baclofen 2.7 mg/dl in drinking water for 5 weeks. As to the method: as §1, with “After division into the groups, from day 5 after the start of feeding, (±)-baclofen was dissolved in drinking water and 5 week-continuous oral administration was started in the baclofen treated group. (±)-baclofen was dissolved in drinking water at a concentration of 2.7 mg/dl used in the high concentration treated group in the experiment of db/db mice.” left out, “Blood was taken after the 5-week administration of (±)-baclofen, and the db/^+m mice were sacrificed by cervical luxation.” left out
R-baclofen and S-baclofen were administered to db/db/mice and (±)-baclofen was administered to db/^+m mice respectively for 5 weeks, and rectal temperatures were then continuously measured for 3 days at 20 o'clock immediately before the dark period when feed intake was started in the mice. […] That is, the rectal temperatures were measured by using a digital thermistor (manufactured by NATSUME SEISAKUSHO CO., LTD.).

The next experiment deals with DIO mice. Description: White adipose tissue weights and fat cell size, DIO mice. The note with it: (±)-baclofen 5 mg/kg/day oral 5 weeks. As to the method: (±)-baclofen (5 mg/kg/day) was orally administered to DIO mice for 5 weeks according to the above described method, and then, blood was taken from an orbit after 6 hour-fasting, and a plasma leptin concentration and a plasma adiponectin concentration were measured. The DIO mice were sacrificed by cervical luxation after the end of the 5-week administration, and then epididymal white adipose tissues and subcutaneous white adipose tissues were surgically removed, and after measuring the weights, they were fixed in 4% formaldehyde. The epididymal white adipose tissues were cut out to prepare a section with a thickness of 8 μm and subjected to Hematoxylin-Eosin stain (H-E stain) and a form (size) of a fat cell was examined by using an image analysis system, Neurolucida (MicroBrightField Japan, Inc.).

With `NCC(CC(=O)O)c1ccc(Cl)cc1` (racemic) [(±)-baclofen, (RS)-4-amino-3-(4-chlorophenyl)butanoic acid], the oxygen consumption result in the experiment with db/db mice ((±)-baclofen oral 5 weeks) is recorded as “significantly increased”. The “body temperature (rectal)” value in the experiment on db/db mice ((±)-baclofen oral, 5 weeks after start of administration) is given as “significantly raised”. Also, in the experiment with db/^+m mice [1], the body weight entry is on record as “did not give significant effects” and the food intake amount result was “did not give significant effects”. Further, the rectal temperature entry in the experiment on db/^+m mice [2] is reported as “did not give a significant effect”. In the experiment with DIO mice, the “weight of epididymal white adipose tissues” value is recorded as “significantly decreased” and the “weight of subcutaneous white adipose tissues” value was “significantly decreased”. The “size of a fat cell in the epididymal white adipose tissues” value in the experiment on DIO mice (H-E stain) is “decreased”.

For the origin of these results see patent publication US20100197789A1, “ANTI-OBESITY AGENT AND USE THEREOF” (National University Corporation Nagoya University, priority 2006, published 2010).
